Results taken from US20040152766A1, “Composition comprising demethylcantharidin in combination with platinum-containing anticancer agents and use thereof” (priority 2003, published 2004).
Several values for one entry are separate records, joined by “and”; a condition that tells them apart may be missing. Equal values may be shown once. Read-outs that look alike come from different tables or passages of the source.

Key:
[1] = test system: L1210 mouse leukaemia; assay: In vitro antitumor-drug screening, tetrazolium (MTT) microculture assay, L1210; format: cell-based
Procedure: (§1) Test complexes 1-5, DMC, hydrolyzed DMC, cantharidin, together with controls cisplatin and carboplatin, were screened for in vitro antitumor activity against a series of human cancer cell lines and mouse leukaemia L1210, using a tetrazolium microculture assay.
(§2) Drugs: Drugs to be tested were dissolved in complete medium at twice the highest concentration to be used, followed by filter (0.22 μm) sterilization. A series of log dilutions were made of each drug solution using complete medium. All drug solutions were prepared within 10 minutes before adding to the cells.
(§3) Cells: MDA-MB-231 (human breast), SK-OV-3 (human ovarian), SK-Hep-1 (human liver), COLO320DM (human colon), L1210 (mouse leukaemia), NCI:H460 (human lung) and NTERA-Scl-D1 (human testicular) were obtained from the American Type Culture Collection (ATCC).
(§4) The cultures were incubated for an additional 72 hours.
(§5) Data analysis: The mean OD for all 12 control wells was determined. For each concentration of each drug, the mean OD of the 4 wells was determined. All mean OD was subtracted from the blank to account for the background. The “Percent of Control” values were determined and plotted. The concentration of drug resulting in 50% growth inhibition (IC50) was determined using the software Prism 3.0 by fitting the graph into sigmoidal dose-response curve.

[2] = test system: COLO320DM human colon cancer; assay: In vitro antitumor-drug screening, MTT assay, COLO320DM; format: cell-based
Procedure: as §1, §2, §3, §4, §5

[3] = test system: MDA-MB-231 human breast cancer; assay: In vitro antitumor-drug screening, MTT assay, MDA-MB-231; format: cell-based
Procedure: as §1, §2, §3, §4, §5

[4] = test system: SK-OV-3 human ovarian cancer; assay: In vitro antitumor-drug screening, MTT assay, SK-OV-3; format: cell-based
Procedure: as §1, §2, §3, §4, §5

[5] = test system: SK-Hep-1 human liver cancer; assay: In vitro antitumor-drug screening, MTT assay, SK-Hep-1; format: cell-based
Procedure: as §1, §2, §3, §4, §5

[6] = test system: NCI: H460 human lung cancer; assay: In vitro antitumor-drug screening, MTT assay, NCI:H460; format: cell-based; conditions: n = 12-16 from 3-4 independent experiments, read-out: Growth-inhibitory activity IC50 ± sd
Procedure: as §1, §2, §3, §4, §5

[7] = test system: NTERA-S cl D1 human testicular cancer; assay: In vitro antitumor-drug screening, MTT assay, NTERA-S cl D1; format: cell-based; conditions: n = 12-16 from 3-4 independent experiments, read-out: Growth-inhibitory activity IC50 ± sd
Procedure: as §1, §2, §3, §4, §5

[8] = test system: Sensitive parental L1210 mouse leukaemia; assay: cells; format: cell-based; conditions: 72-hr exposure, fa = 50%
Procedure: (§6) In vitro drug exposure: Trypsinized cells were adjusted to a concentration of 2×10^5 cells/ml in complete medium and for each drug to be tested, 0.1 ml of the cell suspension was added to each of the 24 wells of a 96-well microtitre plate. The plate was then incubated at standard conditions for 24 hours in order to allow the cells to attach to the bottom of the well and resume exponential growth. To each well of the control cultures and drug/concentration combination, 0.1 ml of complete medium and drug solution respectively was added. Each drug/concentration combination consisted of 4 replicates while control cultures consisted of 12 replicates. 12 replicates of blank consisting of 0.2 ml complete medium were set aside to account for the background. The cultures were incubated for an additional 72 hours. All experiments were repeated at least 3 times on different occasions.
(§7) MTT assay: The MTT (tetrazolium) assay was used to determine the growth-inhibitory effects of different drugs. A 5 mg/ml solution of MTT (3-(4,5-dimethylthiazol-2-yl)-2,5-diphenyltetrazolium bromide) was prepared in phosphate buffer saline (pH 7.4), filter (0.22 μm) sterilized and stored at −20° C. To each well, 0.02 ml of the MTT solution was added and the plates were incubated at standard conditions for 4 hours. The media from each well was then removed and 0.1 ml of DMSO (dimethylsulfoxide) was added to each well to solubilize the colored dye produced from the metabolic reduction of MTT. The amount of reduced MTT was determined by spectrophotometric means (570 nm).
(§8) Platinum compounds were evaluated alone and in combination with demethylcantharidin (DMC) for their cytotoxic effects. The cytotoxicity for the compounds was determined by the MTT assay as described above. The median-effect principle and combination-index isobologram method of Chou and Talalay was used to determine the dose-effect parameters for cisplatin, DMC, or their mixtures at different combination ratios. Each drug or mixture was 3-fold serially diluted to generate a dose-effect relationship in the cytotoxic assays.
(§9) Combinations of cisplatin and DMC were evaluated for synergism, additive effect or antagonism using the median-effect plot and combination-index isobologram method of Chou and Talalay references 1-4.
This method involves plotting dose-effect curves for each agent and their combinations in multiply-diluted concentrations by using the median-effect equation [3,6] […]
CI<1, CI=1, and CI>1 indicate synergism, additivity, and antagonism, respectively. As based on the classic isobologram equation, CI can be calculated by equation: […]
Both the mutually non-exclusive and exclusive drug interaction as defined by Chou and Chou (reference 7) were evaluated. […]

[9] = test system: Cisplatin-resistant L1210 mouse leukaemia; conditions: for fold-resistant (cross-resistance): Dm in CDDP-resistant L1210 versus sensitive L1210
Procedure: as §6, §7, §8, §9
This method involves plotting dose-effect curves for each agent and their combinations in multiply-diluted concentrations by using the median-effect equation [3,6]
where fa is the fraction of cells affected (ie, fraction of cells killed), fu the fraction unaffected (i.e. fraction of cells surviving; fa=1−fu), D the dose of drug and Dm the dose causing the median effect
The parameters m, Dm, and r are the slope, antilog of x-intercept, and the linear correlation coefficient of the median-effect plot, which signifies the shape of the dose-effect curve, the potency (IC50), and conformity of the data to the mass-action law, in references 3, 5 and 6, respectively. Dm and m values are used for calculating the combination index (CI) values.
CI<1, CI=1, and CI>1 indicate synergism, additivity, and antagonism, respectively. As based on the classic isobologram equation, CI can be calculated by equation:
CI=[(D)1/(Dx)1]+[(D)2/(Dx)2]+[α(D)1(D)2]/[(Dx)1(Dx)2),
Both the mutually non-exclusive and exclusive drug interaction as defined by Chou and Chou (reference 7) were evaluated.
To preclude a false-positive result, classical isobologram curve tracing was used to confirm the synergistic effect at a reasonable fractional cytotoxic effect (fa=50%).

[10] = L1210 mouse leukaemia, n = 12-16 from 3-4 independent experiments, read-out: Growth-inhibitory activity IC50 ± sd
[11] = COLO320-DM human colon cancer, n = 12-16 from 3-4 independent experiments, read-out: Growth-inhibitory activity IC50 ± sd
[12] = MDA-MB-231 human breast cancer, n = 12-16 from 3-4 independent experiments, read-out: Growth-inhibitory activity IC50 ± sd
[13] = SK-OV-3 human ovarian cancer, n = 12-16 from 3-4 independent experiments, read-out: Growth-inhibitory activity IC50 ± sd
[14] = SK-Hep-1 human liver cancer, n = 12-16 from 3-4 independent experiments, read-out: Growth-inhibitory activity IC50 ± sd
[15] = sensitive parental L1210, read-out: Dm (i.e. IC50), antilog of x-intercept of the median-effect plot
[16] = Mus musculus, L1210, Table 1, read-out: In vitro antitumor activity IC50
[17] = Homo sapiens, COLO 320DM, COLO320DM, Table 1, read-out: In vitro antitumor activity IC50
[18] = Homo sapiens, MDA-MB-231, Table 1, read-out: In vitro antitumor activity IC50
[19] = Homo sapiens, SK-OV-3, Table 1, read-out: In vitro antitumor activity IC50
[20] = Homo sapiens, SK-HEP1, SK-Hep-1, Table 1, read-out: In vitro antitumor activity IC50

[NH2][Pt]1([NH2])[O]C(=O)C2C3CCC(O3)C2C(=O)[O]1 (stereo not drawn) [Complex 1]
IC50 [1, 10]: 2.71 ± 0.4 µM
IC50 [2, 11]: 37.2 ± 7.14 µM
IC50 [3, 12]: 63.8 ± 8.28 µM
IC50 [4, 13]: 40.8 ± 14.3 µM
IC50 [5, 14]: 20.6 ± 5.89 µM
IC50 [6]: 21.1 ± 10.7 µM
IC50 [7]: 0.36 ± 0.25 µM
IC50 [8, 15]: 5.15 µM
IC50 [9]: 42.4 µM
fold-resistant (cross-resistance) [9]: 8 fold and 8.2 fold
fold-resistant (cross-resistance) ([9]; listed as complex 1): different degree of cross-resistant

O=C1[O][Pt]2([NH]C3CCCCC3[NH]2)[O]C(=O)C2C3CCC(O3)C12 (stereo not drawn) [Complex 5]
fold-resistant (cross-resistance) [9]: negligible cross-resistance

O=C(O)C1C2CCC(O2)C1C(=O)O (stereo not drawn) [Hydrolyzed DMC]
IC50 ([1]; L1210, Table 1, read-out: In vitro antitumor activity IC50): 8.33 µM
IC50 ([2]; COLO320DM, Table 1, read-out: In vitro antitumor activity IC50): 46.5 µM
IC50 ([3]; MDA-MB-231, Table 1, read-out: In vitro antitumor activity IC50): 41.7 µM
IC50 ([4]; SK-OV-3, Table 1, read-out: In vitro antitumor activity IC50): 46.6 µM
IC50 ([5]; SK-Hep-1, Table 1, read-out: In vitro antitumor activity IC50): 7.2 µM

O=C1OC(=O)C2C3CCC(O3)C12 (stereo not drawn) [DMC, Demethylcantharidin]
IC50 [1, 16]: 13.9 µM
IC50 [2, 17]: 19.3 µM
IC50 [3, 18]: 31.8 µM
IC50 [4, 19]: 53.8 µM
IC50 [5, 20]: 11.5 µM
IC50 ([8]; Mus musculus, L1210, 72 h, read-out: Dm (i.e. IC50), antilog of x-intercept of the median-effect plot, sensitive parental L1210): 11.2 µM
fold-resistant (cross-resistance) [9]: 1.1 fold
fold-resistant (cross-resistance) ([9]; listed as demethylcantharidin (DMC)): negligible cross-resistance

O=C1[O][Pt]2([NH][C@@H]3CCCC[C@H]3[NH]2)[O]C1=O [Oxaliplatin]
fold-resistant (cross-resistance) [9]: different degree of cross-resistant

C[NH][Pt]1([NH]C)[O]C(=O)C2C3CCC(O3)C2C(=O)[O]1 (stereo not drawn) [Complex 3]
IC50 [1, 10]: 6.19 ± 2.67 µM
IC50 [2, 11]: 48.9 ± 10.5 µM
IC50 [3, 12]: 49.4 ± 9.42 µM
IC50 [4, 13]: 37.2 ± 13.4 µM
IC50 [5, 14]: 15.4 ± 6.04 µM
IC50 [6]: 3.44 ± 1.98 µM
IC50 [7]: 0.84 ± 0.2 µM

CC[NH][Pt]1([NH]CC)[O]C(=O)C2C3CCC(O3)C2C(=O)[O]1 (stereo not drawn) [Complex 4]
IC50 [1, 10]: 5.92 ± 1.94 µM
IC50 [2, 11]: 48.5 ± 9.95 µM
IC50 [3, 12]: 62.5 ± 13.3 µM
IC50 [4, 13]: 62.6 ± 33.5 µM
IC50 [5, 14]: 20 ± 5.52 µM
IC50 [6]: 3.91 ± 2.65 µM
IC50 [7]: 0.6 ± 0.24 µM

CC(C)[NH][Pt]1([NH]C(C)C)[O]C(=O)C2C3CCC(O3)C2C(=O)[O]1 (stereo not drawn) [Complex 2]
IC50 [1, 10]: 12.1 ± 2.35 µM
IC50 [2, 11]: 84.7 ± 9.68 µM
IC50 [3, 12]: 94.5 ± 9.61 µM
IC50 [4, 13]: 77.7 ± 19.8 µM
IC50 [5, 14]: 17.2 ± 8.07 µM
IC50 [6]: 26.5 ± 8.09 µM
IC50 [7]: 1.44 ± 0.41 µM

C[C@@]12C(=O)OC(=O)[C@]1(C)[C@H]1CC[C@@H]2O1 [Cantharidin]
IC50 [1, 16]: 38.9 µM
IC50 [2, 17]: 35.6 µM
IC50 [3, 18]: 10.6 µM
IC50 [4, 19]: 4.98 µM
IC50 [5, 20]: 3.34 µM

N.N.O=C([O-])C1(C(=O)[O-])CCC1.[Pt+2] [Carboplatin, reference compound]
IC50 [1, 10]: 10.1 ± 3.71 µM
IC50 [2, 11]: 188 ± 35.8 µM
IC50 [3, 12]: 1080 ± 157 µM
IC50 [4, 13]: 149 ± 34.1 µM
IC50 [5, 14]: 501 ± 86.6 µM
IC50 [6]: 60.3 ± 16.4 µM
IC50 [7]: 2.75 ± 1.13 µM
IC50 [8, 15]: 10.6 µM
IC50 [9]: 154 µM
fold-resistant (cross-resistance) [9]: 14.5 fold
fold-resistant (cross-resistance) ([9]; listed as carboplatin): ~15 fold

N.N.[Cl][Pt][Cl] [Cisplatin, reference compound]
IC50 [1, 10]: 0.51 ± 0.11 µM
IC50 [2, 11]: 11.9 ± 1.5 µM
IC50 [3, 12]: 65.7 ± 4.39 µM
IC50 [4, 13]: 15.2 ± 11.8 µM
IC50 [5, 14]: 54.1 ± 9.81 µM
IC50 [6]: 11.3 ± 4.93 µM
IC50 [7]: 0.19 ± 0.1 µM
IC50 [8, 15]: 0.603 µM
IC50 [9]: 24.6 µM
DRI for cisplatin, resistant versus sensitive parental cell line ([9]; Cisplatin:DMC 1:1.67 (resistant) versus 1:1.49 (sensitive)): about 5.5 fold
fold-resistant (cross-resistance) [9]: 40.8 fold
fold-resistant (cross-resistance) ([9]; listed as cisplatin): 40 fold
